Test results reported in patent US9527850B2, “Benzyl piperidine compounds as lysophosphatidic acid (LPA) receptor antagonist” (Merck Patent GmbH, priority 2011, dated 2016).

These compounds were tested against T1, LPA2 receptor (LPA2R) (Homo sapiens, UniProt Q9HBW0) (assay: LPA2R-Calciumflux assay (intracellular calcium mobilisation, FLIPR)). Settings: U2OS cells recombinant expressing LPA2R; inhibition of LPA-induced Ca-flux; 10 concentrations 30 uM to 1 nM, 1% DMSO.
T1 construct: expressed in transfected cells; host or cells: U2OS
Assay type: cell-based
Excerpt: The assay detects intra cellular calcium which is generated by cells upon activation of the LPA2 receptor by its ligand LPA. This transient calcium mobilization can be monitored using a commercial calcium detection kit (e.g. from Molecular Devices). The main component of such a kit is a dye, which becomes fluorescent when calcium is present—a transient fluorescence signal after laddition of a ligand to a test well are the result. Readers like the FLIPR (Molecular Devices) can be used to monitor such transient “Ca-flux” signals.
The signals are calculated according to peak maximum minus base line.
The assay is performed in microplates (384 wells per plate).
LPA2R-Calciumflux Assay Protocol
The assay is run according to the following procedure: • 50 uL seed cells (10000 cells/well in DMEM buffer) • Incubate 24 h at 37° C., 10% CO2 • aspirate medium • 50 uL add calcium dye 1×HBSS/HEPES buffer • incubate 1 h at 37° C. (“loading”) • equilibrate 10 min at RT • 5 uL add compounds in HEPES buffer • shake 10 sec. at 1000 rpm • incubate 15 min at RT • 20 uL add LPA (in the FLIPR Tetra) in Krebs-buffer/BSA & measurement
The cells are seeded in DMEM buffer (DMEM, 10% FCS, 10 mM HEPES, 1% Pen/Strep).
Dye loading is done in HBSS/HEPES buffer (100 mL 10×HBSS+20 mL 1M HEPES+880 mL water, pH 7.4)
The LPA is added in Krebs/BSA buffer (120 mM NaCl, 5 mM KCl, 0.62 mM MgSO4, 1.8 mM CaCl2, 10 mM HEPES, 6 mM D(+)-Glucose, 0.2% BSA, pH 7.4).
The compounds are pre-diluted in HEPES buffer (20 mM, pH 7.4), whereby the final DMSO content in the assay is kept at 1%. The compounds are pre-diluted in order to generate dose response series on the microplates. The dose response series consist of 10 concentrations for each compound from 30 uM final to 1 nM final. From all compound wells the resulting signals are referred to control wells (located on each plate besides the compound wells) in terms of % activity.
From these % activity values—along with the corresponding compound concentrations—IC50 values are fitted for each compound using standard fitting programs such as Graphpad Prism. Here the method “log(inhibitor) vs. response—Variable slope” is used.

T1 sequence (Q9HBW0 whole entry): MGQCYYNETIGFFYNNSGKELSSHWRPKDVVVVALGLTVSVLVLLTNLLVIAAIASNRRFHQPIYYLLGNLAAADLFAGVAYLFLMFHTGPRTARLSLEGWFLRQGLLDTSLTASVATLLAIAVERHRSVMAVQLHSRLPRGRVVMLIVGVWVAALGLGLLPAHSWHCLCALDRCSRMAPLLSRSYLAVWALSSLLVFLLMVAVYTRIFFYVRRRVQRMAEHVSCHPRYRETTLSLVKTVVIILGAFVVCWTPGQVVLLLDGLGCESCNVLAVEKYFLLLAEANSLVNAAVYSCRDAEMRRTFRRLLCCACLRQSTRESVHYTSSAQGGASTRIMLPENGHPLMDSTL

| IC50 [µM] | SMILES |
| --- | --- |
| > 15 | Cc1ccc(CN2CCCC[C@H]2c2cc3ccccc3[nH]2)cc1 [Example Compound 143, 2-[(S)-1-(4-Methyl-benzyl)-piperidin-2-yl]-1H-indole] |
| 0.5 to 5 | COc1ccc(CN2CCCCC2c2cc3ccccc3[nH]2)cc1 (stereo not drawn) [compound 1, 2-[1-(4-Methoxy-benzyl)-piperidin-2-yl]-1H-indole] |
| < 0.5 | Cc1cccc(CN2CCCCC2c2cc3ccccc3[nH]2)c1 (stereo not drawn) [compound 2, 2-[1-(3-Methyl-benzyl)-piperidin-2-yl]-1H-indole] |
| < 0.5 | Fc1ccc(CN2CCCCC2c2cc3ccccc3[nH]2)cc1 (stereo not drawn) [compound 3, 2-[1-(4-Fluoro-benzyl)-piperidin-2-yl]-1H-indole] |
| < 0.5 | COc1cccc(CN2CCCCC2c2cc3ccccc3[nH]2)c1 (stereo not drawn) [compound 4, 2-[1-(3-Methoxy-benzyl)-piperidin-2-yl]-1H-indole] |
| < 0.5 | Cc1ccc(CN2CCCCC2c2cc3ccccc3[nH]2)cc1C (stereo not drawn) [compound 5, 2-[1-(3,4-Dimethyl-benzyl)-piperidin-2-yl]-1H-indole] |
| 0.5 to 5 | c1ccc(CN2CCCCC2c2cc3ccccc3[nH]2)cc1 (stereo not drawn) [compound 6, 2-(1-Benzyl-piperidin-2-yl)-1H-indole] |
| 0.5 to 5 | Cn1cc(CN2CCCCC2c2cc3ccccc3[nH]2)c2ccccc21 (stereo not drawn) [compound 8, 3-[2-(1H-Indol-2-yl)-piperidin-1-ylmethyl]-1-methyl-1H-indole] |
| 0.5 to 5 | CC(C)n1cc(CN2CCCCC2c2cc3ccccc3[nH]2)c2ccccc21 (stereo not drawn) [compound 9, 3-[2-(1H-Indol-2-yl)-piperidin-1-ylmethyl]-1-isopropyl-1H-indole] |
| 5 to 15 | Cn1cccc1CN1CCCCC1c1cc2ccccc2[nH]1 (stereo not drawn) [compound 10] |
| < 0.5 | Cc1ccc(CN2CCCCC2c2cc3ccccc3[nH]2)cc1 (stereo not drawn) [compound 13, 2-[1-(4-Methyl-benzyl)-piperidin-2-yl]-1H-indole] |
| 0.5 to 5 | Cc1cccc(CN2CCCCC2c2cc3cc(F)ccc3[nH]2)c1 (stereo not drawn) [compound 14, 5-Fluoro-2-[1-(3-methyl-benzyl)-piperidin 2-yl]-1H-indole] |
| 0.5 to 5 | Cc1ccc(CN2CCCCC2c2cc3cc(F)ccc3[nH]2)cc1C (stereo not drawn) [compound 15, 2-[1-(3,4-Dimethyl-benzyl)-piperidin-2-yl]-5-fluoro-1H-indole] |
| 5 to 15 | FC(F)(F)c1ccccc1CN1CCCCC1c1cc2ccccc2[nH]1 (stereo not drawn) [compound 16] |
| 5 to 15 | FC(F)(F)c1cccc(CN2CCCCC2c2cc3ccccc3[nH]2)c1 (stereo not drawn) [compound 17] |
| 0.5 to 5 | FC(F)(F)c1ccc(CN2CCCCC2c2cc3ccccc3[nH]2)cc1 (stereo not drawn) [compound 18] |
| 5 to 15 | N#Cc1ccc(CN2CCCCC2c2cc3ccccc3[nH]2)cc1 (stereo not drawn) [compound 19, 4-[2-(1H-Indol-2-yl)-piperidin-1-ylmethyl]-benzonitrile] |
| 0.5 to 5 | Cc1cccc(CN2CCCCC2c2cc3cccc(C)c3[nH]2)c1 (stereo not drawn) [compound 20, 7-Methyl-2-[1-(3-methyl-benzyl)-piperidin-2-yl]-1H-indole] |
| 5 to 15 | Cc1cccc(CN2CCCCC2c2cc3cc(F)cc(F)c3[nH]2)c1 (stereo not drawn) [compound 21, 5,7-Difluoro-2-[1-(3-methyl-benzyl)-piperidin-2-yl]-1H-indole] |
| 5 to 15 | Cc1ccc(CN2CCCCC2c2cc3cc(F)cc(F)c3[nH]2)cc1 (stereo not drawn) [compound 22, 5,7-Difluoro-2-[1-(4-methyl-benzyl)-piperidin-2-yl]-1H-indole] |
| 0.5 to 5 | Cc1ccc(CN2CCCCC2c2cc3cc(F)cc(F)c3[nH]2)cc1C (stereo not drawn) [compound 23, 2-[1-(3,4-Dimethyl-benzyl)-piperidin-2-yl]-5,7-difluoro-1H-indole] |
| 0.5 to 5 | Cc1ccc(CN2CCCCC2c2cc3c(F)ccc(F)c3[nH]2)cc1C (stereo not drawn) [compound 24, 2-[1-(3,4-Dimethyl-benzyl)-piperidin-2-yl]-4,7-difluoro-1H-indole] |
| 0.5 to 5 | CCOC(=O)c1ccc(CN2CCCCC2c2cc3ccccc3[nH]2)cc1 (stereo not drawn) [compound 25, 4-[2-(1H-Indol-2-yl)-piperidin-1-ylmethyl]-benzoic acid ethyl ester] |

| IC50 [µM] | SMILES |
| --- | --- |
| 0.5 to 5 | CC1CCCC(c2cc3ccccc3[nH]2)N1Cc1ccccc1O (stereo not drawn) [compound 26, 2-[2-(1H-Indol-2-yl)-6-methyl-piperidin-1-ylmethyl]-phenol] |
| < 0.5 | Cc1ccc(CN2C(C)CCCC2c2cc3ccccc3[nH]2)cc1C (stereo not drawn) [compound 27, 2-[1-(3,4-Dimethyl-benzyl)-6-methyl-piperidin-2-yl]-1H-indole] |
| 0.5 to 5 | COc1ccccc1CN1C(C)CCCC1c1cc2cc(F)ccc2[nH]1 (stereo not drawn) [compound 28, 5-Fluoro-2-[1-(2-methoxy-benzyl)-6-methyl-piperidin-2-yl]-1H-indole] |
| 0.5 to 5 | CC1CCCC(c2cc3cc(F)ccc3[nH]2)N1Cc1ccccc1O (stereo not drawn) [compound 29, 2-[2-(5-Fluoro-1H-indol-2-yl)-6-methyl-piperidin-1-ylmethyl]-phenol] |
| < 0.5 | Cc1cccc(CN2C(C)CCCC2c2cc3cc(F)ccc3[nH]2)c1 (stereo not drawn) [compound 30, 5-Fluoro-2-[6-methyl-1-(3-methyl-benzyl)-piperidin-2-yl]-1H-indole] |
| 0.5 to 5 | CC1CCCC(c2cc3cc(F)ccc3[nH]2)N1Cc1cccc([N+](=O)[O-])c1 (stereo not drawn) [compound 31, 5-Fluoro-2-[6-methyl-1-(3-nitro-benzyl)-piperidin-2-yl]-1H-indole] |
| 0.5 to 5 | CC1CCCC(c2cc3cc(F)ccc3[nH]2)N1Cc1ccc(C#N)cc1 (stereo not drawn) [compound 32, 4-[2-(5-Fluoro-1H-indol-2-yl)-6-methyl-piperidin-1-ylmethyl]-benzonitrile] |
| 0.5 to 5 | CC1CCCC(c2cc3cc(F)ccc3[nH]2)N1Cc1ccc(S(C)(=O)=O)cc1 (stereo not drawn) [compound 33] |
| 0.5 to 5 | CCOc1ccc(CN2C(C)CCCC2c2cc3cc(F)ccc3[nH]2)cc1 (stereo not drawn) [compound 34, 2-[1-(4-Ethoxy-benzyl)-6-methyl-piperidin-2-yl]-5-fluoro-1H-indole] |
| 0.5 to 5 | CCOC(=O)c1ccc(CN2C(C)CCCC2c2cc3cc(F)ccc3[nH]2)cc1 (stereo not drawn) [compound 35, 4-[2-(5-Fluoro-1H-indol-2-yl)-6-methyl-piperidin-1-ylmethyl]-benzoic acid ethyl ester] |
| < 0.5 | CC1CCCC(c2cc3cc(F)ccc3[nH]2)N1Cc1ccc(F)cc1 (stereo not drawn) [compound 36, 5-Fluoro-2-[1-(4-fluoro-benzyl)-6-methyl-piperidin-2-yl]-1H-indole] |
| 0.5 to 5 | CC1CCCC(c2cc3cc(F)ccc3[nH]2)N1Cc1ccc(F)cc1F (stereo not drawn) [compound 37, 2-[1-(2,4-Difluoro-benzyl)-6-methyl-piperidin-2-yl]-5-fluoro-1H-indole] |
| < 0.5 | Cc1ccc(CN2C(C)CCCC2c2cc3cc(F)ccc3[nH]2)o1 (stereo not drawn) [compound 38, 5-Fluoro-2-[6-methyl-1-(5-methyl-furan-2-ylmethyl)-piperidin-2-yl]-1H-indole] |
| 0.5 to 5 | CC1CCCC(c2cc3cc(F)ccc3[nH]2)N1Cc1ccc(Cl)cc1 (stereo not drawn) [compound 39, 2-[1-(4-Chloro-benzyl)-6-methyl-piperidin-2-yl]-5-fluoro-1H-indole] |
| < 0.5 | COc1cccc(CN2C(C)CCCC2c2cc3cc(F)ccc3[nH]2)c1 (stereo not drawn) [compound 40, 5-Fluoro-2-[1-(3-methoxy-benzyl)-6-methyl-piperidin-2-yl]-1H-indole] |
| 0.5 to 5 | CC1CCCC(c2cc3cc(F)ccc3[nH]2)N1Cc1cccnc1 (stereo not drawn) [compound 41, 5-Fluoro-2-(6-methyl-1-pyridin-3-ylmethyl-piperidin-2-yl)-1H-indole] |
| 5 to 15 | N#Cc1ccc(CN2CCCCC2c2cc3c(F)ccc(F)c3[nH]2)cc1 (stereo not drawn) [compound 42, 4-[2-(4,7-Difluoro-1H-indol-2-yl)-piperidin-1-ylmethyl]-benzonitrile] |
| 0.5 to 5 | Fc1ccc(F)c2[nH]c(C3CCCCN3)cc12 (stereo not drawn) [compound 44, 4,7-Difluoro-2-piperidin-2-yl-1H-indole] |
| 0.5 to 5 | CC1CCCC(c2cc3cc(F)ccc3[nH]2)N1 (stereo not drawn) [compound 45, 5-Fluoro-2-(6-methyl-piperidin-2-yl)-1H-indole] |
| 0.5 to 5 | Cc1ccc(CN2C(C)CCCC2c2cc3cc(F)ccc3[nH]2)cc1 (stereo not drawn) [compound 46, 5-Fluoro-2-[6-methyl-1-(4-methyl-benzyl)-piperidin-2-yl]-1H-indole] |
| 0.5 to 5 | COc1ccc(CN2CCCCC2c2nc3cc(F)ccc3[nH]2)cc1 (stereo not drawn) [compound 47] |
| 0.5 to 5 | COc1ccc(CN2CCCCC2c2cc3ccccc3o2)cc1 (stereo not drawn) [compound 48, 2-Benzofuran-2-yl-1-(4-methoxy-benzyl)-piperidine] |
